Values quoted from earlier work as cited in patent US20070173464A1, “Oral ribavirin pharmaceutical compositions” (Flamel Technologies, priority 2005, published 2007).
≈ marks a conversion by molar mass, not a printed value.

How the values were obtained:
Hepatitis C Virus (HC) = details: up to 1200 mg per day, typically 48 weeks, in conjunction with interferon or long acting pegylated interferon; genotype I patients

NC(=O)c1ncn([C@@H]2O[C@H](CO)[C@@H](O)[C@H]2O)n1 [Ribavirin, 1-beta-D-ribofuranosyl-1,2,4-thiazole-3-carboxamide]
water solubility: 140 mg/mL (≈ 573 mM) | sustained virologic response (Hepatitis C Virus (HC)): 30 to 55 % of genotype I patients
